Experimental data taken from patent US20150126465A1, “PROCESS FOR PRODUCING DERIVATIVES OF PYROSTEGIA VENUSTA, DERIVATIVES OF PYROSTEGIA VENUSTA, PHARMACEUTICAL COMPOSITIONS AND ITS USES” (priority 2011, published 2015).
Values after ≈ are worked out from the molar mass of the structure shown. Read-outs that look alike come from different tables or passages of the source.

Test system: Candida krusei USP 2223
Assay: MIC by microdilution (CLSI M27-A2)
Format: cell-based
Conditions: Pichia kudriavzevii, USP2223, read-out: MIC

- MIC (Table 12, C. krusei USP 2223, 48 h, 35° C.): 1 µg/mL (≈ 2.4 µM)
- MIC (Table 14, C. krusei USP 2223): 4 µg/mL (≈ 9.61 µM)
SMILES: Clc1ccc(COC(Cn2ccnc2)c2ccc(Cl)cc2Cl)c(Cl)c1 (centres unmarked) [Miconazol]
